Like-named read-outs stand apart in the source and are kept apart here.
How the values were obtained:
[1] = tested on: F10T (DNA, hairpin, hexaethylene glycol (HEG) linker between 10 and 11) TATAGCTATATATAGCTATA; assay: FRET melting; conditions: 10 mM K+, 90 mM Li+; 10 mM Li cacodylate; 1 µM ligand, 200 nM DNA
T. brucei [2] = tested on: T. brucei; parameters: method as in earlier work; conditions: typical G4 interactive compounds; ref 6b; cited from earlier work
[3] = tested on: F10T-K+ (hairpin duplex DNA); assay: FRET melting assay, hairpin duplex DNA; type: binding; conditions: 200 nM DNA, PIPER and 3 not reliable (spectral overlap)
Protocol: (§1) With the library in hand, we began our investigation into G4 stabilization by conducting a Förster resonance energy transfer (FRET) melting assay to assess DNA stabilization using the procedure outlined by De Cian et. al. ^[13] […] The sequences examined (at 200 nM) were the human telomeric G4 in potassium buffer (F21T‐K^+, mixed parallel/hybrid G4) ^[14] and sodium buffer (F21T‐Na^+, antiparallel G4), ^[15] the c‐Myc promoter G‐quadruplex (FmycT‐K^+, parallel G4), ^[16] a polymorphic G4 found in T. brucei (FEBR1T‐K^+, a mixed G4 topology), ^[6b] and a hairpin duplex DNA sequence (F10T‐K^+). Together, these sequences represent targets for therapeutic intervention to treat parasitic infections, ^[6b] or cancer. ^[1b] The topology of each sequence was confirmed independently via circular dichroism (CD, Figure S1). […]
(§2) FRET melting assays were performed to assess ligand affinity for duplex and G-quadruplex
(§3) DNA. Briefly, oligonucleotides of interest were obtained labelled at the 5’ and 3’ ends with FAM (a fluorescence donor) and TAMRA (a fluorescence quencher), respectively. In the folded state, proximity of the donor and quencher result in no observed fluorescence from FAM, since energy is transferred non-radiatively to TAMRA by FRET. As the temperature is raised and the secondary structure denatures, the fluorophores move further apart and the fluorescence signal increases. From the resulting curve, the characteristic melting temperature (Tmax, also referred to as Tm) is defined as the temperature which corresponds to the maxima of the first derivative of the normalised fluorescence signal. The change in melting temperature (ΔTm) induced by the presence of a small molecule ligand provides an indication of the ligand’s ability to stabilise the DNA structure. FRET experiments were performed according to the […]
(§4) procedure reported by De Cian and co-workers[S3] on a Stratagene MX3005P. The method consisted of holding at 25 °C for 5 min, before heating at 1 °C/min to 96 °C in 1 °C increments, […]

[4] = tested on: Febr1T-K+ (T. brucei G-quadruplex); assay: FRET melting assay, T. brucei G4; type: binding; conditions: 200 nM DNA, PIPER and 3 not reliable (spectral overlap)
Protocol: as §1, §2, §3, §4

[5] = tested on: FmycT-K+ (c-Myc promoter G-quadruplex, parallel); assay: FRET melting assay, c-Myc promoter G4; type: binding; conditions: 200 nM DNA, PIPER and 3 not reliable (spectral overlap)
Protocol: as §1, §2, §3, §4

[6] = tested on: F21T-K+ (human telomeric G-quadruplex, mixed parallel/hybrid); assay: FRET melting assay, human telomeric G4 in potassium buffer; type: binding; conditions: 200 nM DNA, PIPER and 3 not reliable (spectral overlap)
Protocol: as §1, §2, §3, §4

[7] = tested on: HeLa cervical carcinoma cells; assay: Cytotoxicity, alamarBlue assay, HeLa; type: cell-based, human; conditions: Homo sapiens, HeLa; 72 h incubation, alamarBlue fluorescence; read-out: absolute EC50 HeLa
Protocol: (§5) Doxorubicin, suramin and miltefosine were used as control compounds.[ ^6b , ^9 ] After incubation with varied concentrations of the compounds for 72 h, cell viability was measured using either an alamarBlue™ assay (for MRC5, HeLa and T. brucei) or MTT assay (for L. major). Absolute EC50 values and selectivity indexes were then calculated from dose‐response curves (Table 2 and S14). […]
(§6) Cell culture reagents were purchased from Thermo Fisher Scientific (Waltham, MA, USA) and used as-is. The Dulbecco’s Minimal Essential Medium (DMEM) formulation contained either high glucose (4.5 g/L, catalogue number: 10569) or low glucose (1 g/L, catalogue number:
(§7) 10567). RPMI-1640 was provided without sodium pyruvate and with L-glutamine (catalogue number: 11875). Phosphate Buffered Saline (PBS) contained NaCl (9 g/L), KH2PO4 (144 mg/L) and Na2HPO4-7.H2O (795 mg/L, catalogue number: 10010049). TrypLE Express™ was provided with EDTA (458 mg/L) and without Phenol Red (catalogue number: 12604021).
MRC-5 cells (human lung fibroblasts) were grown in monolayer (37 °C, 5 % CO2 and 100 % humidity) in DMEM medium (1 g/L glucose), supplemented with 10% heat-inactivated Fetal Bovine Serum (hiFBS), 2 mM L-glutamine, 100 U / mL penicillin and […] streptomycin. HeLa (Human cervical carcinoma cell line) cells were maintained at 37 °C and 5 % CO2 in high glucose DMEM (4.5 g / L) supplemented with 10% hiFBS, 100 U / ml penicillin, […] streptomycin, 2 mM L-glutamine and non-essential aminoacids (1X).
(§8) Cells were cultured according to ATCC recommendations and were used for the experiments while in the exponential growth phase. […]
(§9) Cytotoxicity was measured through the alamarBlue® assay (Thermo Fisher Scientific).[S6,S13] Briefly, 5×10^3 MRC-5 or HeLa cells were seeded in 96-wells plates (100 µL / well) in the presence of increasing concentrations of compound. After 72 hrs of incubation at 37 °C, 20 µL of alamarBlue® solution (110 ng / ml) was added to each well and cells were reincubated for 4 hrs at 37 °C. Then, 50 µL of 3 % SDS were added to each well. The plate was incubated at 37 °C for an extra hour and then analysed by fluorescence with an Infinite F200 plate reader (TECAN Austria, GmbH). The excitation wavelength was fixed at 550 nm and the emission wavelength at 590 nm. The results are expressed as the concentration of compound that reduces

MRC5 non-tumoral cells = assay: Cytotoxicity, alamarBlue assay, MRC5; type: cell-based, human; conditions: Homo sapiens, MRC5, 72 h, 72 h incubation, alamarBlue fluorescence; read-out: absolute EC50 MRC5
Protocol: as §5, §6, §7
(§10) MRC-5 cells (human lung fibroblasts) were grown in monolayer (37 °C, 5 % CO2 and 100 % humidity) in DMEM medium (1 g/L glucose), supplemented with 10% heat-inactivated Fetal Bovine Serum (hiFBS), 2 mM L-glutamine, 100 U / mL penicillin and […]
(§11) streptomycin. […]
as §8, §9

L. major = assay: Leishmaniacidal activity, MTT assay; type: cell-based; conditions: Leishmania major; 72 h incubation, MTT absorbance; read-out: absolute EC50 L. major
Protocol: Doxorubicin, suramin and miltefosine were used as control compounds.[ ^6b , ^9 ] After incubation with varied concentrations of the compounds for 72 h, cell viability was measured using either an alamarBlue™ assay (for MRC5, HeLa and T. brucei) or MTT assay (for L. major). Absolute EC50 values and selectivity indexes were then calculated from dose‐response curves (Table 2 and S14).
Invitrogen). L. major promastigotes (MHOM/IL/80/Friedlin) were cultured at 28 °C, 5 % CO2 in modified RPMI-1640 medium (Thermo Fisher Scientific, Waltham, MA, USA) with 10% hiFBS. Parasites were split every other day and maintained in their experimental growth phase (below 2 million parasites per mL). […]
The results are expressed as the concentration of compound that reduces cell growth by 50 % versus untreated control cells (EC50) using GraphPad Prism 7 (GraphPad Software) to fit the data to a sigmoidal curve. Data are presented as the average of three independent measurements all conducted in triplicate conditions. […]
The leishmaniacidal activity of the compounds on promastigotes L. major (MHOM/IL/80/Friedlin) was carried out as previously described.[S14] Briefly, 4 × 10^6 / mL promastigotes were incubated for 72 h at 28 °C in 96-well plates (50 µL/well) in the presence of increasing concentration of compounds. Cell proliferation was determined using an MTT-based assay (Sigma-Aldrich). Thus, after the 72 h incubation, 10 µL of MTT (5 mg/ml) were added to each well and parasites were reincubated for 4 hrs at 28 °C. Then, 50 µL of 20 % SDS were added to each well. The plate was then incubated at 37°C for 4-16 hrs and analysed using an Infinite F200 plate reader (TECAN Austria, GmbH). The absorbance was measured […]
at a wavelength of 540 nm and the EC50 was calculated as described above. Data are presented as the average of three independent measurements, all conducted in triplicate conditions. […]

[8] = tested on: F21T-Na+ (human telomeric G-quadruplex, antiparallel); assay: FRET melting assay, human telomeric G4 in sodium buffer; type: binding; conditions: 200 nM DNA, PIPER and 3 not reliable (spectral overlap)
Protocol: as §1, §2, §3, §4

T. brucei [9] = assay: Trypanocidal activity, alamarBlue assay; type: cell-based; conditions: Trypanosoma brucei; 72 h incubation, alamarBlue fluorescence; read-out: absolute EC50 T. brucei
Protocol: as §5, §6, §7, §10, §11, §8
hiFBS. Parasites were split every other day and maintained in their experimental growth phase (below 2 million parasites per mL).
as §9

[10] = tested on: F21T (DNA, G4) GGGTTAGGGTTAGGGTTAGGG; assay: FRET melting; conditions: 10 mM K+, 90 mM Li+, 10 mM Li cacodylate, 200 nM DNA
[11] = tested on: FMycT (DNA, G4) TTGAGGGTGGGTAGGGTGGGTAA; assay: FRET melting; conditions: 1 mM K+, 99 mM Li+; 10 mM Li cacodylate; 1 µM ligand, 200 nM DNA
[12] = tested on: Febr1T (DNA, G4) GGGCAGGGGGTGATGGGGAGGAGCCAGGG; assay: FRET melting; conditions: 10 mM K+, 90 mM Li+; 10 mM Li cacodylate; 1 µM ligand, 200 nM DNA

With `C[n+]1ccc(-c2c3nc(c(-c4cc[n+](C)cc4)c4ccc([nH]4)c(-c4cc[n+](C)cc4)c4nc(c(-c5cc[n+](C)cc5)c5ccc2[nH]5)C=C4)C=C3)cc1` the ΔTm [1] was 9 ± 1 °C.
For `CN(C)c1ccc(Nc2c3ccc(NC(=O)CCN4CCCC4)cc3nc3cc(NC(=O)CCN4CCCC4)ccc23)cc1` [BRACO‐19], the EC50 (T. brucei [2]) is listed as 7.8 µM and the “selectivity index (SI) T. brucei over MRC5” value (T. brucei [2]) is listed as 1.5.
With `CN1CCN(CCCN2C(=O)c3ccc(-c4ccc5c(c4)C(=O)N(CCCN4CCN(C)CC4)C5=O)cc3C2=O)CC1` [Compound 4] the “ΔTm F10T-K+” value ([3]; 10 µM ligand) was 0 ± 1 °C, the “ΔTm Febr1T-K+” value ([4]; 10 µM ligand) was 3 ± 1 °C and the “ΔTm FmycT-K+” value ([5]; 10 µM ligand) was 2 ± 1 °C. The “ΔTm F21T-K+” value ([6]; 10 µM ligand) was 1 ± 1 °C, the EC50 [7] was greater than 100 µM and the EC50 (MRC5 non-tumoral cells) was greater than 100 µM. The EC50 (L. major) was greater than 100 µM, the “ΔTm F21T-Na+” value ([8]; 10 µM ligand) was -2 ± 2 °C and the EC50 (T. brucei [9]) was 57 ± 10 µM. The ΔTm ([10]; 10 µM ligand) was 1 ± 1 °C.
In the case of `NCCOc1cc(C(=O)Nc2cc(OCCN)c3ccccc3n2)nc(C(=O)Nc2cc(OCCN)c3ccccc3n2)c1` [Pyridostatin, reference compound], the ΔTm [11] is reported as 20 ± 3 °C, the ΔTm [12] is reported as 29 ± 2 °C and the “ΔTm F10T-K+” value ([3]; 1 µM ligand) is reported as 1 ± 1 °C. The “ΔTm Febr1T-K+” value ([4]; 1 µM ligand) was 29 ± 2 °C, the “ΔTm FmycT-K+” value ([5]; 1 µM ligand) was 20 ± 3 °C and the “ΔTm F21T-K+” value ([6]; 1 µM ligand) was 34 ± 1 °C. The EC50 (T. brucei [2]) was 5.5 µM, the “ΔTm F21T-Na+” value ([8]; 1 µM ligand) was 36 ± 2 °C and the ΔTm ([10]; 1 µM ligand) was 34 ± 1 °C.

Reference: PMC8251916 (Chemistry (Weinheim an Der Bergstrasse, Germany), 2021)
